According to PMC9027532, “Preclinical Pharmacokinetic Studies of a Novel Diuretic Inhibiting Urea Transporters” (Molecules, 2022):
Where “and” joins values, the source holds several entries; their conditions need not be identical. Identical values can stand only once. Entries after “also recorded” stand apart in the source; their conditions may differ.

Tests used:
[1] = Pharmacokinetic study in rats (plasma, LC-MS/MS, NCA)
[2] = Excretion experiment in bile duct cannulated rats (bile); assay type: in vivo, SD rats; conditions: single oral dose 100 mg/kg
Method: The cumulative excretion ratios of unchanged 25a in the urine, feces, and bile of rats after a single oral dose at 100 mg/kg were 0.14% ± 0.05%, 3.16% ± 0.96%, and 0.018% ± 0.006%, respectively (Figure 6 and Tables S5–S7). […] Further phenotyping and metabolite identification studies should be conducted to elucidate the major elimination forms of 25a in the future.
Four SD rats were adapted in metabolic cages for 3 days in advance and then administrated with 25a at 100 mg/kg orally. Feces and urine were collected and weighed at 0–6 h, 6–12 h, […], 24–36 h, 36–48 h, 48–60 h, and 60–72 h after administration. Parallelly, four SD rats received bile duct cannulation and were given a single dose of 25a at 100 mg/kg orally. Bile was collected and weighed at 0–2 h, 0–4 h, 0–6 h, 0–8 h, 0–10 h, 0–12 h, 0–24 h, 0–36 h, and 0–48 h after administration. All samples were stored at −80 °C until analysis.

[3] = test system: UT-B; parameters: method as in PMID 34601246; conditions: mice; read-out: inhibitory effect on UT-B; cited from earlier work
[4] = test system: SD rats; assay: PK-PD study: urine output increment (diuresis) in rats; assay type: in vivo, Sprague-Dawley rats
[5] = male, Sprague-Dawley, rat, plasma, po, 100 mg/kg, Mean plasma concentration, rats, multiple p.o. 100 mg/kg
[6] = male, Sprague-Dawley, rat, plasma, po, 100 mg/kg, Mean plasma concentration, rats, single p.o. 100 mg/kg

SMILES: CC(=O)Nc1ccc(NC(=O)c2ccc(C(C)=O)o2)cc1 [Compound 25a, N-(4-acetamidophenyl)-5-acetylfuran-2-carboxamide]
- concentration at 0.5 h ([1]; male, Sprague-Dawley, rat, plasma, po, 100 mg/kg, Mean plasma concentration, rats, 0.5 h, single p.o. 100 mg/kg): 1030 ± 124 ng/mL
- concentration at 1 h [1, 5]: 1410 ± 283 ng/mL
- concentration at 1 h [1, 6]: 734 ± 134 ng/mL
- concentration at 2 h [1, 5]: 1710 ± 185 ng/mL
- concentration at 2 h [1, 6]: 687 ± 146 ng/mL
- concentration at 4 h [1, 5]: 1080 ± 110 ng/mL
- concentration at 4 h [1, 6]: 1130 ± 245 ng/mL
- concentration at 6 h [1, 5]: 717 ± 196 ng/mL
- concentration at 6 h [1, 6]: 835 ± 178 ng/mL
- concentration at 8 h [1, 5]: 494 ± 111 ng/mL
- concentration at 8 h [1, 6]: 596 ± 126 ng/mL
- concentration at 12 h [1, 5]: 245 ± 73.6 ng/mL
- concentration at 12 h [1, 6]: 173 ± 36.7 ng/mL
- concentration at 24 h [1, 5]: 28.1 ± 85.9 ng/mL
- concentration at 24 h [1, 6]: 10.9 ± 6.6 ng/mL
- half-life ([1]; male, Sprague-Dawley, rat, plasma, po, 100 mg/kg, half-life, rats, single oral doses 25, 50, 100 mg/kg): 2.6 to 3 h
- half-life ([1]; male, Sprague-Dawley, rat, plasma, po, 100 mg/kg, t1/2, rats, multiple p.o. 100 mg/kg, twice per day for 7 days): 5.03 ± 0.82 h
- Tmax at 7 days ([1]; male, Sprague-Dawley, rat, plasma, po, 100 mg/kg, tmax, rats, multiple p.o. 100 mg/kg, twice per day for 7 days): ~2 h
- Tmax ([1]; male, Sprague-Dawley, rat, plasma, po, 100 mg/kg, tmax, rats, single p.o. 100 mg/kg): ~0.17 h
- bioavailability ([1]; male, Sprague-Dawley, rat, plasma, po, oral bioavailability, SD rats, oral administration, overall): ≤ 20%
- time to reach maximum plasma concentration (Cmax) ([1]; rats, after oral administration): ≤ 0.5 h
- V/F ([1]; rats, multiple p.o. 100 mg/kg, twice per day for 7 days): 59.8 ± 11.8 L/kg
- bioavailability of 25a relative to lead compound 1H ([1]; rats, oral): approximately fourfold; also recorded: approximately four times higher
- V (V/F row) ([1]; rats, single i.v. 1 mg/kg): 2.6 ± 1.4 L/kg
- V/F ([1]; rats, single p.o. 25 mg/kg): 40.9 ± 7.4 L/kg
- V/F ([1]; rats, single p.o. 50 mg/kg): 40.1 ± 10.8 L/kg
- AUC0–∞ ([1]; rats, single p.o. 100 mg/kg): 6957.4 ± 345.1 ng·h/mL
- V/F ([1]; rats, single p.o. 100 mg/kg): 63.0 ± 17.6 L/kg
- t1/2 ([1]; rats, single p.o. 100 mg/kg): 3.04 ± 0.70 h
- clearance ([1]; read-out: CL (CL/F row), rats, single i.v. 1 mg/kg): 35 mL/min/kg
- Accumulated Amount in bile ([2]; 0-2 h): 0.531 ± 0.233 µg
- Concentration in bile ([2]; 0-2 h): 220.5 ± 44.4 ng/mL
- Accumulated Amount in bile ([2]; 0-4 h): 1.138 ± 0.434 µg
- Concentration in bile ([2]; 0-4 h): 192.3 ± 52.3 ng/mL
- Accumulated Amount in bile ([2]; 0-6 h): 1.451 ± 0.481 µg
- Concentration in bile ([2]; 0-6 h): 161.3 ± 55.4 ng/mL
- Accumulated Amount in bile ([2]; 0-8 h): 1.783 ± 0.489 µg
- Concentration in bile ([2]; 0-8 h): 169.5 ± 57.2 ng/mL
- Accumulated Amount in bile ([2]; 0-10 h): 2.215 ± 0.603 µg
- Concentration in bile ([2]; 0-10 h): 156.8 ± 23.8 ng/mL
- Accumulated Amount in bile ([2]; 0-12 h): 2.888 ± 0.929 µg
- Concentration in bile ([2]; 0-12 h): 147.3 ± 27.7 ng/mL
- Accumulated Amount in bile ([2]; 0-24 h): 3.664 ± 1.010 µg
- Concentration in bile ([2]; 0-24 h): 83.5 ± 19.9 ng/mL
- Accumulated Amount in bile ([2]; 0-36 h): 4.113 ± 1.058 µg
- Concentration in bile ([2]; 0-36 h): 40.7 ± 21.1 ng/mL
- Accumulated Amount in bile ([2]; 0-48 h): 4.300 ± 1.184 µg
- Concentration in bile ([2]; 0-48 h): 17.9 ± 17.1 ng/mL
- cumulative excretion ratio of unchanged 25a in bile ([2]; 100 mg/kg): 0.018% and 0.018% ± 0.006%
- urine output increment per 12 h (diuresis) ([4]; p.o. 25 mg/kg): 0.5 ± 0.2 mL
- urine output increment per 12 h (diuresis) ([4]; p.o. 50 mg/kg): 1.6 ± 0.8 mL
- urine output increment per 12 h (diuresis) ([4]; p.o. 100 mg/kg): 2.7 ± 0.9 mL
